Measured values taken from PMC12675575, “A BRET biosensor for measuring uncompetitive engagement of PRMT5 complexes in cells” (Nature Communications, 2025).
Where “and” joins values, the source holds several entries; their conditions need not be identical. Identical values can stand only once.

Experiments:
[1] = molecular target: T1, NL-PRMT5 (Homo sapiens, UniProt O14744); assay: CBH-002 affinity curve, HEK293, NL-PRMT5 fusion with empty carrier DNA (no WDR77); format: cell-based; design: unit not given here; details: Figure S2A NL-PRMT5, log([CBH-002])
T1 construct: host or cells: HEK293
T1 sequence (O14744 whole entry, the tested form may be a part): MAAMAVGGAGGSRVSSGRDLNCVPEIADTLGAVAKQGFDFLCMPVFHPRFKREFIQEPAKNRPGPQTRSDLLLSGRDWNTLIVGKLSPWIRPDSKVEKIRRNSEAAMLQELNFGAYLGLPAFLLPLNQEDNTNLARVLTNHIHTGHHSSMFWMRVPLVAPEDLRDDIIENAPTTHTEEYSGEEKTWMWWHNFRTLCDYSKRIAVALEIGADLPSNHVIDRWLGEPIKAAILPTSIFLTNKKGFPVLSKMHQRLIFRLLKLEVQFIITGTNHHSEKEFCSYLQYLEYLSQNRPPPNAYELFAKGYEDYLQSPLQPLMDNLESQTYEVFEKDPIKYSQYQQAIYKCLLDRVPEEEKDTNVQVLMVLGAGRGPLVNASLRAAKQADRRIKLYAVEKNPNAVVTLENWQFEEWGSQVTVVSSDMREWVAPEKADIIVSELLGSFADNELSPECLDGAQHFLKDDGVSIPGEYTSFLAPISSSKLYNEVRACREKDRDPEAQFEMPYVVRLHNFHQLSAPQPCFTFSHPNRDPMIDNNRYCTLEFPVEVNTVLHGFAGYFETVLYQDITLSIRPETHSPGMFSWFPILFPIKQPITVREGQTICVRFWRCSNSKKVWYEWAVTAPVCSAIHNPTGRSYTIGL
Procedure: (§1) HEK293 cells (ATCC) were cultured in DMEM (Thermo Fisher) + 10% (v/v) FBS (Seredigm), and HCT116 cells (Horizon Discovery, #PAR-034 and #R02-033) were cultured in McCoy’s 5A (Thermo Fisher) + 10% FBS, with incubation in a humidified, 37 °C/5% CO2 incubator. Cells were split 1–3 days prior to performing experiments and used at roughly 80% confluency. […] Cells were transfected according to the manufacturer’s protocol using FuGENE HD (Promega). NanoLuc fusion DNA was diluted into Transfection Carrier DNA (Promega) in Opti-MEM at a ratio of 1:9 (mass/mass), and FuGENE HD was added at a ratio of 1:3 (μg DNA:μL lipid). For experiments using WDR77, untagged WDR77 DNA (Promega) was used in place of Carrier DNA. Formed complexes were combined with cells resuspended to a density of 2 × 10^5 cells/mL in Opti-MEM + 1% FBS at a ratio of 1:20 (vol:vol). Cells were plated into a flask and incubated at 37 °C in a humidified 5% CO2 atmosphere for 18–24 h, before being lifted and seeded into 96-well non-binding surface-treated plates (Corning). Cells were seeded at a density of 2 × 10^5 cells/mL in Opti-MEM + 1% FBS in 100 μL (96-well). The BRET probe CBH-002 was prepared first as a 100× stock in 100% DMSO (Sigma) and then diluted to a 20× stock in NanoBRET Tracer Dilution buffer (Promega). Test compounds were prepared as 1000× stocks in 100% DMSO and diluted to 10× stocks in Opti-MEM to prepare working stocks. […] NanoBRET Complete 3x Substrate was prepared by combining Nano-Glo Substrate and Extracellular NanoLuc Inhibitor in Opti-MEM, according to the manufacturer’s protocol (Promega). NanoBRET Complete 3× Substrate was added to cells and plates were measured on either a PheraSTAR FSX equipped with 450 nm (donor) and 610 nm (acceptor) filters, or a GloMAX Discover equipped with 450/8 nm BP (donor) and 600 nm LP (acceptor) filters, using a 0.3 s integration time.
(§2) EC50 values were obtained by fitting the BRET probe and compound affinity curves to a sigmoidal four-parameter fit model in Graphpad Prism:1 Y=Ymin+Ymax−Ymin/1+10^LogEC50−Xh where h is the Hill Slope.

[2] = molecular target: NanoLuc-PRMT5 co-expressed with WDR77 (Homo sapiens, UniProt O14744); assay: Live-cell NanoBRET target engagement with BRET probe CBH-002 in HEK293 cells expressing NanoLuc-PRMT5 and unlabeled WDR77; format: cell-based; design: host or cells: HEK293; key to BRET, CBH-002 + DMSO / BRET, CBH-002 + GSK3326595: mBRET units = acceptor/donor BRET ratio × 1000; details: for BRET, CBH-002 + DMSO / BRET, CBH-002 + GSK3326595: log([CBH-002]); for BRET, CBH-002 + GSK3326595: 10 µM GSK3326595
Sequence of NanoLuc-PRMT5 co-expressed with WDR77 (O14744 whole entry): as the sequence (O14744 whole entry, the tested form may be a part) above
Sequence of NanoLuc-PRMT5 co-expressed with WDR77 (Q9BQA1 whole entry partner): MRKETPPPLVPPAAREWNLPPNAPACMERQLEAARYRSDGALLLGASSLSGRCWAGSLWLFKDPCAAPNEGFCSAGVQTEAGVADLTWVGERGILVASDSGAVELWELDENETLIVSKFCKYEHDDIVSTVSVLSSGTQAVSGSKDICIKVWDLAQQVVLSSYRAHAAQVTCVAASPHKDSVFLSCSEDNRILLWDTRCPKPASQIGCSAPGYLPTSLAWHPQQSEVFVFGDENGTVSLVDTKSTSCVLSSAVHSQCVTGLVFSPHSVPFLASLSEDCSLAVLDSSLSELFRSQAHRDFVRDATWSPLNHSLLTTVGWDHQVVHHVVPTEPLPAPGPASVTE
Procedure: as §1, with “For experiments using WDR77, untagged WDR77 DNA (Promega) was used in place of Carrier DNA.” left out, “Cells were plated into a flask and incubated at 37 °C in a humidified 5% CO2 atmosphere for 18–24 h, before being lifted and seeded into 96-well non-binding surface-treated plates (Corning).” left out, “(Promega).” for “(Promega). NanoBRET Complete 3× Substrate was added to cells and plates were measured on either a PheraSTAR FSX equipped with 450 nm (donor) and 610 nm (acceptor) filters, or a GloMAX Discover equipped with 450/8 nm BP (donor) and 600 nm LP (acceptor) filters, using a 0.3 s integration time.”
BRET ratio values were calculated by dividing the acceptor by the donor signal, and raw BRET was converted to milli-BRET (mBRET) units (mBu) by multiplying by 1000.
as §2
When normalized BRET was used, mBRET values were normalized using2 NormalizedBRET%=(Y−BRETmin)/BRETmax−BRETmin where y = mBRET in the presence of test compound and BRET probe, BRETmin = mBRET at the highest concentration (saturating) of test compound and BRET probe, and BRETmax = mBRET in the presence of vehicle (DMSO) and BRET probe.
Normalized concentration-response curves showing full competition were fit using a 2-parameter model:3 Y=100/1+10^LogEC50−Xh
In situations where only partial competition was observed, the normalized concentration-response curves were fit using Eq. 1 and where Ymin was constrained to >0.

Compound: O=C(CCc1ccc2n1[B-](F)(F)[N+]1=C(c3ccc[nH]3)C=CC1=C2)NCCCCC(=O)N1CCC(Nc2cc(C(=O)NC[C@H](O)CN3CCc4ccccc4C3)ncn2)CC1 [CBH-002]
- BRET, CBH-002 + DMSO ([1]; uM 0.04576): 20.5721 and 25.8738 and 18.388
- BRET, CBH-002 + GSK3326595 ([1]; uM 0.04576): 1.809 and 2.429 and 2.181
- BRET, CBH-002 + DMSO ([1]; uM 0.52288): 24.1037 and 25.1393 and 24.5832
- BRET, CBH-002 + GSK3326595 ([1]; uM 0.52288): 4.538 and 4.814 and 4.399
- BRET, CBH-002 + DMSO ([1]; uM 1): 34.4603 and 46.2115 and 36.0512
- BRET, CBH-002 + GSK3326595 ([1]; uM 1): 12.5442 and 11.3355 and 11.5115
- BRET, CBH-002 + DMSO ([1]; uM -0.43136): 17.1332 and 19.3006 and 16.5836
- BRET, CBH-002 + GSK3326595 ([1]; uM -0.43136): 1.767 and 1.79 and 1.327
- BRET, CBH-002 + DMSO ([1]; uM -0.90849): 13.1405 and 15.4187 and 12.8329
- BRET, CBH-002 + GSK3326595 ([1]; uM -0.90849): 0.7756 and 0.9895 and 1.006
- BRET, CBH-002 + DMSO ([1]; uM -1.20952): 13.3172 and 13.6477 and 14.1021
- BRET, CBH-002 + GSK3326595 ([1]; uM -1.20952): 0.6778 and 0.9377 and 0.9652
- BRET, CBH-002 + DMSO ([1]; uM -1.68664): 10.4832 and 12.4293 and 10.2869
- BRET, CBH-002 + GSK3326595 ([1]; uM -1.68664): 1.144 and 1.071 and 1
- BRET, CBH-002 + DMSO ([1]; uM -1.98767): 7.5477 and 8.773 and 6.804
- BRET, CBH-002 + GSK3326595 ([1]; uM -1.98767): 0.4652 and 0.5599 and 0.5695
- BRET, CBH-002 + DMSO ([1]; uM -2.46479): 4.066 and 4.851 and 4.778
- BRET, CBH-002 + DMSO ([1]; uM -2.94191): 2.639 and 2.5785 and 2.4252
- BRET, CBH-002 + DMSO ([2]; uM 0.00): 772.09 and 714.74 and 694.22
- BRET, CBH-002 + GSK3326595 ([2]; uM 0.00): 61.04 and 53.68 and 50.91
- BRET, CBH-002 + DMSO ([2]; uM -0.30): 762.09 and 706.06 and 687.42
- BRET, CBH-002 + GSK3326595 ([2]; uM -0.30): 39.10 and 34.12 and 31.58
- BRET, CBH-002 + DMSO ([2]; uM -0.60): 725.23 and 680.05 and 663.94
- BRET, CBH-002 + GSK3326595 ([2]; uM -0.60): 21.81 and 20.23 and 18.49
- BRET, CBH-002 + DMSO ([2]; uM -0.90): 664.14 and 629.71 and 617.88
- BRET, CBH-002 + GSK3326595 ([2]; uM -0.90): 15.32 and 14.57 and 13.57
- BRET, CBH-002 + DMSO ([2]; uM -1.20): 530.53 and 496.08 and 504.63
- BRET, CBH-002 + GSK3326595 ([2]; uM -1.20): 11.35 and 11.22 and 10.54
- BRET, CBH-002 + DMSO ([2]; uM -1.51): 359.70 and 340.31 and 361.19
- BRET, CBH-002 + GSK3326595 ([2]; uM -1.51): 9.43 and 9.45 and 8.97
- BRET, CBH-002 + DMSO ([2]; uM -1.81): 238.28 and 223.48 and 233.43
- BRET, CBH-002 + GSK3326595 ([2]; uM -1.81): 8.65 and 8.75 and 8.42
- BRET, CBH-002 + DMSO ([2]; uM -2.11): 126.25 and 118.03 and 125.67
- BRET, CBH-002 + GSK3326595 ([2]; uM -2.11): 8.17 and 8.22 and 7.93
- BRET, CBH-002 + DMSO ([2]; uM -2.41): 70.04 and 65.87 and 70.86
- BRET, CBH-002 + GSK3326595 ([2]; uM -2.41): 7.94 and 8.15 and 7.70
- BRET, CBH-002 + DMSO ([2]; uM -2.71): 39.89 and 37.62 and 39.62
- BRET, CBH-002 + GSK3326595 ([2]; uM -2.71): 7.74 and 7.94 and 7.67
- BRET, CBH-002 + DMSO ([2]; uM -3.01): 23.90 and 22.68 and 24.07
- BRET, CBH-002 + GSK3326595 ([2]; uM -3.01): 7.80 and 7.76 and 7.50
- EC50 ([2]; probe titration against 10 µM GSK3326595 or DMSO, live HEK293, WDR77 co-expression, read-out: CBH-002 apparent affinity (EC50)): 33 nM
